The values below come from ChEMBL document CHEMBL5303711, “ECBD screening data for assay EOS300108” (2023).

Where a name gives a salt, the structure may show the parent alone. Activity calls are given as the source filed them. The rule behind the calls is not given here.

The nature of this series: Cytotoxicity activity against human HepG2 cells assessed by CellTiter-Glo luminescent cell viability assay. The series is classed as toxicity, cell-based. The arrangement: assay stage confirmatory assay, source tissue liver. To be noted: HepG2 cells, read-out: IC50 relative. (In general: In ATP-based viability assays light output follows the ATP content of the culture.)
In the case of `COc1cccc2c1C(=O)c1c(O)c3c(c(O)c1C2=O)CC(O)(C(=O)CO)CC3OC1CC(N)C(O)C(C)O1` (stereo unspecified), the CC50 was 0.4 µM (active). To `CC1CCC/C=C\C2CC(O)CC2C(O)/C=C\C(=O)O1` (stereo unspecified) belongs < 0.1 µM (active); to `Cc1ccc(-c2cccc(CN3[C@@H]4CC[C@H]3[C@H]3CNC[C@H]34)c2)o1`, 8.8 µM (active); to `CCOC(=O)CNS(=O)(=O)c1cc(-c2nnc(Nc3cccc(O)c3)c3ccccc23)ccc1C`, 4.1 µM (active). Take `O=C(c1ccc(F)c(F)c1Nc1ccc(I)cc1F)N1CC(O)(C2CCCCN2)C1` (racemic): the CC50 is < 0.1 µM (active). In the case of `O=C1Nc2cc(Br)ccc2/C1=C1/Nc2ccccc2/C1=N\O` [6BIO], the CC50 is 26.5 µM (inactive). Regarding `CCc1c2c(nc3ccc(O)cc13)-c1cc3c(c(=O)n1C2)COC(=O)[C@]3(O)CC` [7-ETHYL-10-HYDROXYCAMPTOTHECIN], the CC50 was 0.2 µM (active).

For the molecule `Nc1nc2nn[nH]c2c(=O)[nH]1` [8-AZAGUANINE], the CC50 is 7.5 µM (active). To `CN(C)CC#Cc1ccc(OCCCc2sc(N3CCc4cccc(C(=O)Nc5nc6ccccc6s5)c4C3)nc2C(=O)O)c(F)c1` [A-1155463] belongs 2.3 µM (active). To `CN(C)CC[C@H](CSc1ccccc1)Nc1ccc(S(=O)(=O)NC(=O)c2ccc(N3CCN(Cc4ccccc4-c4ccc(Cl)cc4)CC3)cc2)cc1[N+](=O)[O-]` [ABT 737] belongs 13.2 µM (active). For the molecule `C=CCn1c(=O)c2cnc(Nc3ccc(N4CCN(C)CC4)cc3)nc2n1-c1cccc(C(C)(C)O)n1` [ADAVOSERTIB], the CC50 was 4.5 µM (active). The figure for `CCN1CCN(Cc2ccc(-c3cc4c(N[C@H](C)c5ccccc5)ncnc4[nH]3)cc2)CC1` [AEE-788] is 4.1 µM (active). To `CN(C)C/C=C/C(=O)Nc1cc2c(Nc3ccc(F)c(Cl)c3)ncnc2cc1O[C@H]1CCOC1` [AFATINIB DIMALEATE] belongs 2.3 µM (active); to `CC/C(=C(\c1ccc(O)cc1)c1ccc(OCCN(C)C)cc1)c1ccccc1` [AFIMOXIFENE], 3.9 µM (active); to `CCc1cc2c(cc1N1CCC(N3CCOCC3)CC1)C(C)(C)c1[nH]c3cc(C#N)ccc3c1C2=O` [ALECTINIB], 18.9 µM (inactive). The figure for `CNC(=O)[C@@H](c1ccccc1)N1CCc2cc(OC)c(OC)cc2[C@@H]1CCc1ccc(C(F)(F)F)cc1` [ALMOREXANT] is 20.4 µM (inactive). Consider `Cc1nc(NC(=O)N2CCC[C@H]2C(N)=O)sc1-c1ccnc(C(C)(C)C(F)(F)F)c1` [ALPELISIB], for which the CC50 is 6.1 µM (active). To `O=C(Nc1cc(Oc2cc(F)c(NC(=O)C3(C(=O)Nc4ccc(F)cc4)CC3)cc2F)ccn1)C1CC1` [ALTIRATINIB] belongs 0.2 µM (active); to `Cc1csc(-c2nnc(Nc3ccc(Oc4ncccc4-c4ccnc(N)n4)cc3)c3ccccc23)c1` [AMG-900], 25.4 µM (inactive); to `Nc1nc(N)c2nc(CNc3ccc(C(=O)N[C@@H](CCC(=O)O)C(=O)O)cc3)cnc2n1` [AMINOPTERIN], 0.1 µM (active). The figure for `CCN(CC)Cc1cc(Nc2ccnc3cc(Cl)ccc23)ccc1O` [AMODIAQUINE HYDROCHLORIDE] is 3 µM (active); for `COc1cc(NS(C)(=O)=O)ccc1Nc1c2ccccc2nc2ccccc12` [AMSACRINE] it is 2.7 µM (active); for `COc1ccc(C[C@H]2NC[C@H](O)[C@H]2OC(C)=O)cc1` [ANISOMYCIN] it is 0.3 µM (active). For `Cc1c(CN2CCN(C(=O)[C@H](C)O)CC2)sc2c(N3CCOCC3)nc(-c3cnc(N)nc3)nc12` [APITOLISIB], the CC50 is 1.5 µM (active). Turning to `C[C@@H](O[C@H]1OCCN(Cc2n[nH]c(=O)[nH]2)[C@H]1c1ccc(F)cc1)c1cc(C(F)(F)F)cc(C(F)(F)F)c1` [APREPITANT], the CC50 was 14.8 µM (inactive).

Take `NCC(=O)Nc1ccc(-n2nc(C(F)(F)F)cc2-c2ccc3c(ccc4ccccc43)c2)cc1` [AR-12]: the CC50 was 50 µM (inactive). Regarding `COc1cc(C[C@H]2C(=O)OC[C@@H]2Cc2ccc(OC)c(OC)c2)ccc1O` [ARCTIGENIN], the CC50 was 2.6 µM (active).

Regarding `O=C1CCc2ccc(OCCCCN3CCN(c4cccc(Cl)c4Cl)CC3)cc2N1` [ARIPIPRAZOLE], the CC50 was 25.6 µM (inactive). To `COc1ccc(CCN2CCC(Nc3nc4ccccc4n3Cc3ccc(F)cc3)CC2)cc1` [ASTEMIZOLE] belongs 1.5 µM (active).

On to `O=C(NC1CCNCC1)c1n[nH]cc1NC(=O)c1c(Cl)cccc1Cl` [AT-7519], for which the CC50 was 0.2 µM (active). `O=C(Nc1c[nH]nc1-c1nc2cc(CN3CCOCC3)ccc2[nH]1)NC1CC1` [AT-9283]: the CC50 is 1.2 µM (active). To `N#Cc1ccc2[nH]c(O)c(-c3ccc(CN4CCOCC4)cn3)c2c1` [AZD-1080] belongs 7.3 µM (active).

For `Cc1cc(Nc2nc(N[C@@H](C)c3ncc(F)cn3)ncc2Cl)n[nH]1` [AZD-1480], the CC50 was 7.9 µM (active). In the case of `Cc1ncc(-c2ccnc(Nc3ccc(S(C)(=O)=O)cc3)n2)n1C(C)C` [AZD-5438], the CC50 was 0.6 µM (active).

For the molecule `NC(=O)Nc1cc(-c2cccc(F)c2)sc1C(=O)N[C@H]1CCCNC1` [AZD-7762], the CC50 was 0.9 µM (active). As to `COc1ccc(-c2ccc3c(N4CCOC[C@@H]4C)nc(N4CCOC[C@@H]4C)nc3n2)cc1CO` [AZD-8055], the CC50 is 0.1 µM (active).

In the case of `CN1CCCC(n2nc(Cc3ccc(Cl)cc3)c3ccccc3c2=O)CC1` (stereo unspecified) [AZELASTINE HYDROCHLORIDE], the CC50 is 10 µM (active).

For the molecule `CCCCc1nc(-c2ccc(OCCCN(CC)CC)cc2)cn1-c1ccc(Oc2ccc(Cl)cc2)cc1` [AZELIRAGON], the CC50 was 1.2 µM (active). To `Cc1ccc(NC(=O)c2ccc(CN3CC[C@H](N(C)C)C3)c(C(F)(F)F)c2)cc1Nc1nccc(-c2cncnc2)n1` [BAFETINIB] belongs 0.9 µM (active). To `CC1(C)CC[C@]2(C(=O)O)CC[C@]3(C)[C@H](C(=O)C=C4[C@@]5(C)C=C(C#N)C(=O)C(C)(C)[C@@H]5CC[C@]43C)[C@@H]2C1` [BARDOXOLONE] belongs 3.7 µM (active); to `Nc1nc(Nc2ccc3c(c2)CC[C@@H](N2CCCC2)CC3)nn1-c1cc2c(nn1)-c1ccccc1CCC2` [BEMCENTINIB], 1.2 µM (active). To `COc1ccc2cc3[n+](cc2c1OC)CCc1cc2c(cc1-3)OCO2` [BERBERINE CHLORIDE] belongs 14.4 µM (inactive); to `CNCc1ccc(-c2cc(-c3nc(-c4ccc(S(=O)(=O)C(C)C)cc4)cnc3N)on2)cc1` [BERZOSERTIB], 2.7 µM (active); to `CC[C@@H]1C(=O)N(C)c2cnc(Nc3ccc(C(=O)NC4CCN(C)CC4)cc3OC)nc2N1C1CCCC1` [BI-2536], 1.2 µM (active).

`COc1c(C)cnc(Cn2cnc3c(Cl)nc(N)nc32)c1C` [BIIB021]: the CC50 was 0.4 µM (active). The figure for `Cn1cnc2c(F)c(Nc3ccc(Br)cc3F)c(C(=O)NOCCO)cc21` [BINIMETINIB] is < 0.1 µM (active); for `Cc1sc2c(c1C)C(c1ccc(Cl)cc1)=N[C@@H](CC(=O)Nc1ccc(O)cc1)c1nnc(C)n1-2` [BIRABRESIB] it is 1.3 µM (active); for `Oc1c(Cl)cc(Cl)cc1Sc1cc(Cl)cc(Cl)c1O` [BITHIONOL] it is 14.6 µM (inactive). In the case of `CC(C)C[C@H](NC(=O)[C@H](Cc1ccccc1)NC(=O)c1cnccn1)B(O)O` [BORTEZOMIB], the CC50 was < 0.1 µM (active). To `COc1cc(Nc2c(C#N)cnc3cc(OCCCN4CCN(C)CC4)c(OC)cc23)c(Cl)cc1Cl` [BOSUTINIB] belongs 1.8 µM (active). Turning to `O=c1ccc2ccc(OCCCCN3CCN(c4cccc5sccc45)CC3)cc2[nH]1` [BREXPIPRAZOLE], the CC50 was 8.4 µM (active).

With `COc1cc(N2CCC(N3CCN(C)CC3)CC2)ccc1Nc1ncc(Cl)c(Nc2ccccc2P(C)(C)=O)n1` [BRIGATINIB], the CC50 was 5.7 µM (active).

Consider `C[C@@H]1CN(Cc2ccc(F)cc2)CCN1C(=O)COc1ccc(Cl)cc1NC(N)=O` [BX 471 FREE BASE], for which the CC50 is 4.8 µM (active).

With `O=C(NCCCNc1nc(Nc2cccc(NC(=O)N3CCCC3)c2)ncc1I)c1cccs1` [BX-795], the CC50 is 5.2 µM (active). Take `COc1cc2nccc(Oc3ccc(NC(=O)C4(C(=O)Nc5ccc(F)cc5)CC4)cc3)c2cc1OC` [CABOZANTINIB]: the CC50 was 9.5 µM (active). For the molecule `O=C(/C=C/c1ccc(O)c(O)c1)OCCc1ccccc1` [CAFFEIC ACID PHENETHYL ESTER], the CC50 is 4.7 µM (active). The figure for `CC[C@@]1(O)C(=O)OCc2c1cc1n(c2=O)Cc2cc3ccccc3nc2-1` [CAMPTOTHECIN] is 0.2 µM (active). For the molecule `CCOc1nc2cccc(C(=O)OC(C)OC(=O)OC3CCCCC3)c2n1Cc1ccc(-c2ccccc2-c2nnn[nH]2)cc1` (stereo unspecified) [CANDESARTAN CILEXETIL], the CC50 was 10.7 µM (active).

Take `C=CC(=O)Nc1cc2c(Nc3ccc(F)c(Cl)c3)ncnc2cc1OCCCN1CCOCC1` [CANERTINIB]: the CC50 is 50 µM (inactive). The figure for `COc1cc(O)cc(O)c1C(=O)/C=C/c1ccccc1` [CARDAMOMIN] is 18.3 µM (inactive). The figure for `CN(C)C(=O)N[C@H]1CC[C@H](CCN2CCN(c3cccc(Cl)c3Cl)CC2)CC1` [CARIPRAZINE HYDROCHLORIDE] is 14.1 µM (active); for `COc1cc2c(Oc3ccc4[nH]c(C)cc4c3F)ncnc2cc1OCCCN1CCCC1` [CEDIRANIB] it is 2.5 µM (active). Take `CNC(=O)c1ccccc1Nc1nc(Nc2ccc3c(c2OC)CCC[C@H](N2CCN(CCO)CC2)C3)ncc1Cl` [CEP-37440]: the CC50 is 0.8 µM (active). To `Cc1cc(Nc2ncc(Cl)c(Nc3ccccc3S(=O)(=O)C(C)C)n2)c(OC(C)C)cc1C1CCNCC1` [CERITINIB] belongs 0.7 µM (active); to `COc1cc2c(cc1OC(C)C)[C@H](c1ccc(Cl)cc1)N(c1ccc(N(C)C[C@H]3CC[C@H](N4CCN(C)C(=O)C4)CC3)cc1)C(=O)C2` [CGM-097], 6.3 µM (active). The figure for `[H]/N=C(\N/C(=N/[H])NCCCCCCNC(=N)NC(=N)Nc1ccc(Cl)cc1)Nc1ccc(Cl)cc1` [CHLORHEXIDINE] is 4.6 µM (active).
